The first experiment concerns the target HSD17B13 (Homo sapiens (Human), UniProt Q7Z5P4). Briefly: LC/MS estrone detection assay for HSD17B13 activity (estradiol to estrone). Type of experiment: biochemical. The conditions noted are these: estradiol substrate, LC-MS/MS estrone detection. The protocol: The liquid chromatography/mass spectrometry (LC/MS) estrone detection assay monitors the conversion of estradiol to estrone by HSD17B13. This assay was undertaken in a 96 wp format (Eppendorf deep well Plate 96/500) in an 80 μl reaction volume containing: 4 μM of Estradiol (E2; Cayman; Ser. No. 10/006,315), 6 mM NAD+(Sigma; #N0623) and 30 nM HSD17B13 enzyme (in-house; E. coli expressed His-tagged, purified, soluble protein) in a reaction containing 1M potassium phosphate buffer pH 7.4, with 0.5% vehicle (DMSO). Reactions were incubated for 2 hours at 26.5° C., and estradiol (E2) conversion to estrone (E1) was quantitated by LC-MS/MS based analyte detection for both E2 and E1 using LCMS grade reagents.
Reactions were terminated by the addition of two volumes of acetonitrile (MeCN; LCMS grade; CAS #75/05/8) containing deuterated (D4)-E1 used as internal standard (Clear Synth; #CS-T-54273; 500 ng/mL final concentration). Samples were applied to pre-prepared Bond Elut-C18 extraction cartridges (3 mL; Agilent; Ser. No. 12/102,028), washed and eluted in MeCN. Eluates were dried under nitrogen and re-suspended in 60% methanol (LCMS grade methanol; CAS #67/56/1) before submission for analysis. Aqueous linearity for E2 and E1 were included for quantification.
Analysis of samples was undertaken on a XBridge BEH C18 column (Waters; #186003033) using 0.1% Diethyl Amine in MeCN (mobile phase A; DEA CAS #109-89-7) and 0.1% Diethyl Amine in milli-Q water (mobile phase B) in a 3 min gradient allowing 25% B. Analytes were detected in negative mode using MRM analysis, with E2 having a RT of 1.85 min and E1 having a RT of 2 min. Activity of the enzyme, in the absence of NAD+, was used to evaluate specificity of conversion. Enzyme activity in the presence of test samples was expressed as a percentage of the uninhibited enzyme activity, and plotted versus inhibitor concentration. Non-linear regression was performed using a four-parameter logistic model and GraphPad Prism software (GraphPad Software, La Jolla, CA). All assessments were undertaken in duplicate evaluations and pooled during extraction process and subsequently injected as duplicates for LC-MS/MS analysis.
Sequence of HSD17B13 (Q7Z5P4 20-300): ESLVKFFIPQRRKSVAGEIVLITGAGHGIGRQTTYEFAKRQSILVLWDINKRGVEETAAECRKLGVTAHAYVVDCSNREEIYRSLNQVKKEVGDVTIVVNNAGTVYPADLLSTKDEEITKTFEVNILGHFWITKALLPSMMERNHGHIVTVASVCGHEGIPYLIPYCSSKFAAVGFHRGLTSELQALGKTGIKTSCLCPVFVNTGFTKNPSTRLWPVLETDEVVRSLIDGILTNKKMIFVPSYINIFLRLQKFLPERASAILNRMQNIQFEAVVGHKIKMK
As for `O=C(Nc1scnc1C(=O)NC1(c2ccccc2)CCC1)c1cc(Cl)c(O)c(Cl)n1` [Example 32, 5-(4,6-dichloro-5-hydroxypicolinamido)-N-(1-phenylcyclobutyl)thiazole-4-carboxamide], the IC50 was at most 100 nM. As for `Cn1c(=O)n(Cc2ccccc2C(F)(F)F)c(=O)c2c(NC(=O)c3cc(Cl)c(O)c(Cl)n3)cccc21` [Example 20, 4,6-dichloro-5-hydroxy-N-(1-methyl-2,4-dioxo-3-(2-(trifluoromethyl)benzyl)-1,2,3,4-tetrahydroquinazolin-5-yl)picolinamide], the IC50 lay within 100 to 500 nM. With `O=C(Nc1ncc(C(=O)NCc2ccccc2C(F)(F)F)s1)c1cc(Cl)c(O)c(Cl)n1` [Example 28, 2-(4,6-dichloro-5-hydroxypicolinamido)-N-(2-(trifluoromethyl)benzyl)thiazole-5-carboxamide], the IC50 was 1000 to 10000 nM. On the same count and under the same terms, the figure for `CN(Cc1ccccc1C(F)(F)F)C(=O)c1ncsc1NC(=O)c1cc(Cl)c(O)c(Cl)n1` [Example 25, 5-(4,6-dichloro-5-hydroxypicolinamido)-N-methyl-N-(2-(trifluoromethyl)benzyl)thiazole-4-carboxamide] is 100 to 500 nM.

For the molecule `O=C(Nc1ccc(F)c2nnn(Cc3ccccc3C(F)(F)F)c(=O)c12)c1cc(Cl)c(O)c(Cl)n1` [Example 13, 4,6-dichloro-N-(8-fluoro-4-oxo-3-(2-(trifluoromethyl)benzyl)-3,4-dihydrobenzo[d][1,2,3]triazin-5-yl)-5-hydroxypicolinamide], the IC50 lay within 100 to 500 nM. Still for that read-out and setting: the value for `O=C(Nc1sc(-c2cccnc2)nc1C(=O)NCc1ccccc1C(F)(F)F)c1cc(Cl)c(O)c(Cl)n1` [Example 51, 5-(4,6-dichloro-5-hydroxypicolinamido)-2-(pyridin-3-yl)-N-(2-(trifluoromethyl)benzyl)thiazole-4-carboxamide] was 100 to 500 nM; that for `O=C(Nc1nn(CC(F)(F)F)cc1C(=O)NCc1ccccc1C(F)(F)F)c1cc(Cl)c(O)c(Cl)c1` [Example 49, 3-(3,5-dichloro-4-hydroxybenzamido)-1-(2,2,2-trifluoroethyl)-N-(2-(trifluoromethyl)benzyl)-1H-pyrazole-4-carboxamide] was 100 to 500 nM; that for `CS(=O)(=O)c1ccccc1CNC(=O)c1ncsc1NC(=O)c1cc(Cl)c(O)c(Cl)n1` [Example 42, 5-(4,6-dichloro-5-hydroxypicolinamido)-N-(2-(methylsulfonyl)benzyl)thiazole-4-carboxamide] was 100 to 500 nM. Turning to `O=C(Nc1scnc1C(=O)NCC12CC3CC(CC(C3)C1)C2)c1cc(Cl)c(O)c(Cl)n1` [Example 30, N-(adamantan-1-ylmethyl)-5-(4,6-dichloro-5-hydroxypicolinamido)thiazole-4-carboxamide], the IC50 fell in the range of 100 to 500 nM. The molecule `Cn1cc(C(=O)NCCC(C)(C)C)c(NC(=O)c2cc(Cl)c(O)c(Cl)c2)n1` [Example 53, 3-(3,5-dichloro-4-hydroxybenzamido)-N-(3,3-dimethylbutyl)-1-methyl-1H-pyrazole-4-carboxamide] came in with an IC50 of 500 to 1000 nM.

The molecule `O=C(Nc1ccc(F)c2nnn(Cc3ccccc3C(F)(F)F)c(=O)c12)c1cc(Cl)c(O)c(Cl)c1` [Example 14, 3,5-dichloro-N-(8-fluoro-4-oxo-3-(2-(trifluoromethyl)benzyl)-3,4-dihydrobenzo[d][1,2,3]triazin-5-yl)-4-hydroxybenzamide] had an IC50 of at most 100 nM. The molecule `Cn1ncc(NC(=O)c2cc(Cl)c(O)c(Cl)n2)c1C(=O)NCc1ccccc1OC(F)(F)F` [Example 5, 4,6-dichloro-5-hydroxy-N-(1-methyl-5-((2-(trifluoromethoxy)benzyl)carbamoyl)-1H-pyrazol-4-yl)picolinamide] gave an IC50 of 100 to 500 nM. Same read-out and setting: the figure for `O=C(Nc1scnc1C(=O)NC1CCOc2ccccc21)c1cc(Cl)c(O)c(Cl)n1` (stereo not drawn) [Example 43, N-(chroman-4-yl)-5-(4,6-dichloro-5-hydroxypicolinamido)thiazole-4-carboxamide] is 100 to 500 nM. Same read-out and setting: the figure for `O=C(Nc1scnc1C(=O)N1CCC2(CCCCC2)C1)c1cc(Cl)c(O)c(Cl)n1` [Example 31, N-(4-(2-azaspiro[4.5]decane-2-carbonyl)thiazol-5-yl)-4,6-dichloro-5-hydroxypicolinamide] is 1000 to 10000 nM; for `Cc1nc(C(=O)NCc2ccccc2OC(F)(F)F)c(NC(=O)c2cc(Cl)c(O)c(Cl)n2)s1` [Example 22, 5-(4,6-dichloro-5-hydroxypicolinamido)-2-methyl-N-(2-(trifluoromethoxy)benzyl)thiazole-4-carboxamide] it is 100 to 500 nM.

The molecule `Cn1cc(C(=O)NCc2ccccc2C(F)(F)F)c(NC(=O)c2cc(Cl)c(O)c(Cl)c2)n1` [Example 6, 3-(3,5-dichloro-4-hydroxybenzamido)-1-methyl-N-(2-(trifluoromethyl)benzyl)-1H-pyrazole-4-carboxamide] gave an IC50 of 100 to 500 nM.

Take `CC(C)(C)CCNC(=O)c1ncsc1NC(=O)c1cc(Cl)c(O)c(Cl)c1` [Example 46, 5-(3,5-dichloro-4-hydroxybenzamido)-N-(3,3-dimethylbutyl)thiazole-4-carboxamide]: the IC50 lay within 100 to 500 nM. For the molecule `O=C(Nc1scnc1C(=O)N1CCC(C(F)(F)F)CC1)c1cc(Cl)c(O)c(Cl)n1` [Example 44, 4,6-dichloro-5-hydroxy-N-(4-(4-(trifluoromethyl)piperidine-1-carbonyl)thiazol-5-yl)picolinamide], the IC50 fell in the range of 500 to 1000 nM.

The experiment is the same for the next values; noted with them: estradiol substrate, LCMS; read-out: HSD17B13 Inhibition_Estradiol Substrate_LCMS: Ki.
As to `O=C(Nc1sc(-c2ccc[nH]c2=O)nc1C(=O)NCc1ccccc1C(F)(F)F)c1cc(Cl)c(O)c(Cl)n1` [Example 74], the Ki was at most 50 nM. Turning to `O=C(Nc1sc(-c2cc[nH]n2)nc1C(=O)NCc1ccccc1C(F)(F)F)c1cc(Cl)c(O)c(Cl)n1` [Example 71], the Ki is at most 50 nM. On the same count and under the same terms, the figure for `O=C(Nc1sc(C2CCCCC2)nc1C(=O)NCc1ccccc1C(F)(F)F)c1cc(Cl)c(O)c(Cl)c1` [Example 83] is at most 50 nM.

On to `CN1CC=C(c2nc(C(=O)NCc3ccccc3C(F)(F)F)c(NC(=O)c3cc(Cl)c(O)c(Cl)n3)s2)CC1` [Example 85, 5-(4,6-dichloro-5-hydroxypicolinamido)-2-(1-methyl-1,2,3,6-tetrahydropyridin-4-yl)-N-(2-(trifluoromethyl)benzyl) thiazole-4-carboxamide], for which the Ki was 100 to 500 nM. Turning to `O=C(Nc1sc(C2CCCCC2)nc1C(=O)NCc1ccccc1C(F)(F)F)c1cc(Cl)c(O)c(Cl)n1` [Example 84], the Ki was at most 50 nM. Regarding `O=C(Nc1sc(-c2cncc(F)c2)nc1C(=O)NCc1ccccc1C(F)(F)F)c1cc(Cl)c(O)c(Cl)n1` [Example 76], the Ki is at most 50 nM. Regarding `O=C(Nc1sc(-c2ccccc2F)nc1C(=O)NCC12CC(C1)C2)c1cc(F)c(O)c(Cl)c1` [Example 106, N-(bicyclo[1.1.1]pentan-1-ylmethyl)-5-(3-chloro-5-fluoro-4-hydroxybenzamido)-2-(2-fluorophenyl)thiazole-4-carboxamide], the Ki was at most 50 nM.

On to `O=C(Nc1sc(C2CCOCC2)nc1C(=O)NCc1ccccc1C(F)(F)F)c1cc(Cl)c(O)c(Cl)c1` [Example 82, 5-(3,5-dichloro-4-hydroxybenzamido)-2-(tetrahydro-2H-pyran-4-yl)-N-(2-(trifluoromethyl)benzyl)thiazole-4-carboxamide], for which the inhibition constant Ki lay within 100 to 500 nM. Take `O=C(Nc1sc(-c2ccccc2)nc1C(=O)NCC(F)(F)F)c1cc(Cl)c(O)c(Cl)n1` [Example 72]: the Ki lay in the range of 100 to 500 nM.
